Results: publication PMC10934261, “Designing Potent Anti-Cancer Agents: Synthesis and Molecular Docking Studies of Thieno[2,3-d][1,2,4]triazolo[1,5-a]pyrimidine Derivatives” (Molecules, 2024)
“And” between values parts separate entries of the source, which are not always exact repeats. Equal values may be shown once.

Tests used:
[1] = test system: human prostate PC-3 cancer cell line; assay: In vitro cytotoxic screening (MTT assay), PC-3; format: cell-based; conditions: average ± standard deviation
Procedure: (§1) Using human breast MCF-7, colorectal HCT-116, and prostate PC-3 cancer cell lines, preliminary antiproliferative effectiveness of cyclopenta[4,5]thieno[2,3-d][1,2,4]triazolo[1,5-a]pyrimidin-9(6H)-ones 4–16 was established in vitro through MTT assay at different concentrations (100, 50, 25 and 12.5 μM) (Figure 2).
(§2) The cell lines were obtained from Karolinska Center, Department of Oncology and Pathology, Karolinska Institute and Hospital, Stockholm, Sweden. as follows: human breast MCF-7, colorectal HCT-116 and prostate PC-3 cancer cell lines and human skin normal BJ-1 cell line. Exponentially, cells were cultured at a concentration of 10^4 cells/well for 24 h, afterwards fresh medium containing different concentrations of the tested samples was added. Serial two-fold dilution of the tested samples were added using a multichannel pipette. Moreover, all cells were cultivated at 37 °C, 5% CO2 and 95% humidity. Also, incubation of control cells occurred at 37 °C. However, after incubation for 24 h different concentrations of samples (100, 50, 25 and 12.5 µM) were added and the incubation was continued for 48 h, then crystal violet solution 1% was added to each well for 0.5 h to examine the presence of viable cells. After rinsing the wells using water until stain free, 30% glacial acetic acid was added to all wells with shaking the plates on a Microplate reader (TECAN, Inc.) to measure the absorbance at a wavelength of 490 nm. The cytotoxicity was estimated by IC50 in μM, which is the concentration that inhibits 50% of growth of cancer cells. […]
(§3) 1.1. In vitro cytotoxic screening
(§4) The cell lines were obtained from Karolinska Center, Department of Oncology and Pathology, Karolinska Institute and Hospital, Stockholm, Sweden. as follows: human breast MCF-7, colorectal HCT-116 and prostate PC-3 cancer cell lines and human skin normal BJ-1 cell line. Exponentially, cells were placed in 10^4 cells/ well for 24 h, and then add fresh medium which containing different concentration of the tested sample. Serial two-fold dilution of the tested sample were added using a multichannel pipette. Moreover, all cells were cultivated at 37 °C, 5% CO2 and 95% humidity. Also, incubation of control cells occurred at 37 °C. However, after incubation for 24 h different concentrations of sample (100, 50, 25 and 12.5 µM) were added and continued the incubation for 48 h, then, add the crystal violet solution 1% to each well for 0.5 h to examine viable cells. Rinse the wells using water until no stain. After that, add 30% glacial acetic acid to all wells with shaking plates on Microplate reader (TECAN, Inc.) to measure the absorbance, using a test wavelength of 490 nm. Besides, compare the treated samples with the control cell. The cytotoxicity was estimated by IC50 in (μ M), the concentration that inhibits 50% of growth of cancer cell. […]
(§5) The molecular docking simulation of the promising in vitro screened cyclopenta[4,5]thieno[2,3-d][1,2,4]triazolo[1,5-a]pyrimidin-9(6H)-ones 10b and 10e against EGFR and PI3K was done using the Molecular Operating Environment software (MOE-Dock) version 2014.0901. The co-crystallized structures of EGFR and PI3K kinases complexed with their native ligands, erlotinib and quinolone LXX, were downloaded from the protein data bank (PDB codes: 1M17 and 3L54, respectively). All minimizations were performed using MOE until an RMSD gradient of 0.05 kcal∙mol−1Å−1 with MMFF94x force field and the partial charges were automatically calculated. Preparation of the enzyme structures was done for molecular docking using Protonate 3D protocol with the default options in MOE. London dG scoring function and Triangle Matcher placement method were used in the docking protocol. Initially, the original ligands were re-docked into the active binding site of EGFR and PI3K kinases to assess the root-mean-square deviation values. Then, the docking studies of the newly targeted […]

[2] = test system: human breast MCF-7 cancer cell line; assay: In vitro cytotoxic screening (MTT assay), MCF-7; format: cell-based; conditions: average ± standard deviation
Procedure: as §1, §2, §3, §4, §5

[3] = test system: human colorectal HCT-116 cancer cell line; assay: In vitro cytotoxic screening (MTT assay), HCT-116; format: cell-based; conditions: average ± standard deviation
Procedure: as §1, §2, §3, §4, §5

| SMILES | Percentage cytotoxicity on PC-3 ([1]; 12.5 µM) [%] | Percentage cytotoxicity on PC-3 ([1]; 25 µM) [%] | Percentage cytotoxicity on PC-3 ([1]; 50 µM) [%] | Percentage cytotoxicity on PC-3 ([1]; 100 µM) [%] | melting point [°C] | Percentage cytotoxicity on MCF-7 ([2]; 12.5 µM) [%] | Percentage cytotoxicity on MCF-7 ([2]; 25 µM) [%] | Percentage cytotoxicity on MCF-7 ([2]; 50 µM) | Percentage cytotoxicity on MCF-7 ([2]; 100 µM) | Percentage cytotoxicity on HCT-116 ([3]; 12.5 µM) [%] | Percentage cytotoxicity on HCT-116 ([3]; 25 µM) [%] | Percentage cytotoxicity on HCT-116 ([3]; 50 µM) [%] | Percentage cytotoxicity on HCT-116 ([3]; 100 µM) [%] |
| --- | --- | --- | --- | --- | --- | --- | --- | --- | --- | --- | --- | --- | --- |
| O=c1c2c3c(sc2nc2nc([C@@H](O)[C@H](O)[C@H](O)CO)[nH]n12)CCC3 [Compound 11d, 2-((1R,2S,3R)-1,2,3,4-tetrahydroxybutyl)-1,6,7,8-tetrahydro-9H-cyclopenta[4,5]thieno[2,3-d][1,2,4]triazolo[1,5-a]pyrimidin-9-one] | 5.4±6.8 | 6.8±0.3 | 9.7±0.5 | 25.3±3.8 | > 300 | 0.0±0.005 | 29.2±2.9 | 47.9±2.2% | 50.5±0.2% | 0.0±0.005 | 0.0±0.005 | 0.0±0.005 | 10.0±3.4 |
| Cc1nn2c(=O)c3c4c(sc3nc2[nH]1)CCC4 [Compound 5, 2-Methyl-7,8-dihydro-3H-cyclopenta[4,5]thieno[2,3-d][1,2,4]triazolo[1,5-a]pyrimidin-9(6H)-one] | 0.0±0.005 | 0.0±0.005 | 0.0±0.005 | 0.0±0.005 | 93 to 95 | 0.0±0.005 | 0.0±0.005 | 0.0±0.005% | 18.9±10% | 0.0±0.005 | 0.0±0.005 | 0.0±0.005 | 0.0±0.005 |
| CC(=O)OC[C@@H](OC(C)=O)[C@H](OC(C)=O)[C@H](OC(C)=O)[C@@H](OC(C)=O)c1nc2nc3sc4c(c3c(=O)n2[nH]1)CCC4 [Compound 12b, (1S,2R,3S,4R)-1-(9-oxo-1,7,8,9-tetrahydro-6H-cyclopenta[4,5]thieno[2,3-d][1,2,4]triazolo[1,5-a]pyrimidin-2-yl)pentane-1,2,3,4,5-pentayl pentaacetate] | 1.5±2.3 | 4.8±1.1 | 7.3±0.9 | 20.6±3.3 | > 300 | 0.0±0.005 | 5.5±0.6 | 20.8±2.1% | 30.1±7.5% | 0.0±0.005 | 0.0±0.005 | 0.0±0.005 | 13.3±3.1 |
| CC(=O)OC[C@@H](OC(C)=O)[C@@H](OC(C)=O)[C@H](OC(C)=O)[C@@H](OC(C)=O)c1nc2nc3sc4c(c3c(=O)n2[nH]1)CCC4 [Compound 12a, (1S,2R,3R,4R)-1-(9-oxo-1,7,8,9-tetrahydro-6H-cyclopenta[4,5]thieno[2,3-d][1,2,4]triazolo[1,5-a]pyrimidin-2-yl)pentane-1,2,3,4,5-pentayl pentaacetate] |  |  |  |  | > 300 |  |  |  |  |  |  |  |  |
| O=c1c2c3c(sc2nc2nc([C@H](O)[C@@H](O)[C@H](O)[C@H](O)CO)[nH]n12)CCC3 [Compound 11a, 2-((1S,2R,3R,4R)-1,2,3,4,5-pentahydroxypentyl)-1,6,7,8-tetrahydro-9H-cyclopenta[4,5]thieno[2,3-d][1,2,4]triazolo[1,5-a]pyrimidin-9-one] | 9.9±2.5 | 21.9±1.0 | 7.3±0.3 | 33.9±3.5 | > 300 | 0.0±0.005 | 16.2±1.6 | 41.3±4.3% and 36.6±6.3% | 36.6±6.3% and 41.3±4.3% | 12.94±4.6 | 12.94±4.6 | 25.8±1.6 | 32.4±3.9 |
| CC(=O)C/C(C)=N/n1c(N[C@@H]2O[C@H](COC(C)=O)[C@@H](OC(C)=O)[C@H](OC(C)=O)[C@H]2OC(C)=O)nc2sc3c(c2c1=O)CCC3 [Compound 15, (E)-3-((4-Oxopentan-2-ylidene)amino)-2-((2,3,4,6-tetra-O-acetyl-β-D-glocopyranosyl)amino)-6,7-dihydro-3H-cyclopenta[4,5]thieno[2,3-d]pyrimidin-4(5H)-one] | 0.0±0.005 | 0.0±0.005 | 0.0±0.005 | 5.6±1.2 | > 300 | 0.0±0.005 | 0.0±0.005 | 0.0±0.005% | 19.7±3.7% | 0.0±0.005 | 0.0±0.005 | 0.0±0.005 | 3.0±1.2 |
| CC(=O)C/C(C)=N/n1c(N)nc2sc3c(c2c1=O)CCC3 [Compound 8, (E)-2-Amino-3-((4-oxopentan-2-ylidene)amino)-3,5,6,7-tetrahydro-4H-cyclopenta[4,5]thieno[2,3-d]pyrimidin-4-one] | 0.0±0.005 | 0.0±0.005 | 0.0±0.005 | 0.0±0.005 | > 300 | 30.1±4.1 | 31.9±3.1 | 40.9±7.8% | 45.7±5.9% | 0.0±0.005 | 0.0±0.005 | 0.0±0.005 | 0.0±0.005 |
| N#CCc1nn2c(=O)c3c4c(sc3nc2[nH]1)CCC4 [Compound 7, 2-(9-Oxo-6,7,8,9-tetrahydro-3H-cyclopenta[4,5]thieno[2,3-d][1,2,4]triazolo[1,5-a]pyrimidin-2-yl)acetonitrile] |  |  |  |  | > 300 |  |  |  |  |  |  |  |  |
